From publication PMC11224357, “Green, facile synthesis and evaluation of unsymmetrical carbamide derivatives as antimicrobial and anticancer agents with mechanistic insights” (Scientific Reports, 2024)
≈ marks a conversion by molar mass, not a printed value.

Experiments:
Aspergillus fumagitus [1] = assay: MIC by microdilution (CLSI); assay type: cell-based; conditions: read-out: Minimum inhibitory concentration (MIC)
Method: (§1) For this purpose, serial dilution of the potent compounds was carried out to obtain the desired concentrations (i.e. 10–400 µg/mL). In brief, a defined weight for each selected compound was dissolved in dimethylsulphoxide (DMSO) and used as a stock solution[29]. The determination of the MIC value for each targeted compound was known as the lowest concentration of each sample that yielded a minimum number of colony-forming units (CFU) compared to the untreated samples[28].

Candida albicans [2] = assay: MIC by microdilution (CLSI); assay type: cell-based; conditions: read-out: Minimum inhibitory concentration (MIC)
Method: as §1

Aspergillus fumagitus [3] = assay: Agar well diffusion; assay type: cell-based; conditions: Aspergillus fumagitus; 20 µg/mL; read-out: Inhibition Zone
From the text: (§2) The antimicrobial efficiency of the synthesized unsymmetrical carbamide derivatives was screened using standard clinical pathogens derived from Department of Microbiology and Immunology, Faculty of Medicine (Boys), Al-Azhar University. The tested microbial pathogens used in this study were as follows, two Gram-positive bacteria (Bacillus subtilis, Staphylococcus aureus), two Gram-negative bacteria (Pseudomonas aerginousea, klebsiella pneumoniae) and two fungi (Candida albicans, Aspergillus fumgitus). Before each antimicrobial examination, pre-activation of each microbial pathogen was implemented using specific growth conditions. For bacterial ones, preinoculum was prepared using Nuitrent broth medium (Codalab, Spain) at 37 °C for 24 h. while the fungal pathogens were activated using Potato Dextrose broth (Codalab, Spain) at 28 °C for 48 h. Consequently, each tested pathogen justified its inoculum size based on Colony Forming Units (CFU) to be closed to […] during all antimicrobial tests.

Bacillus subtilis [4] = assay: Agar well diffusion; assay type: cell-based; conditions: 20 µg/mL, read-out: Inhibition Zone
From the text: as §2, with “For bacterial ones, preinoculum was prepared using Nuitrent broth medium (Codalab, Spain) at 37 °C for 24 h. while the fungal pathogens were activated using Potato Dextrose broth (Codalab, Spain) at 28 °C for 48 h.” left out

Klebsiella pneumonia [5] = assay: Agar well diffusion; assay type: cell-based; conditions: Klebsiella pneumoniae; Klebsiella pneumonia; 20 µg/mL; read-out: Inhibition Zone
From the text: as §2, with “For bacterial ones, preinoculum was prepared using Nuitrent broth medium (Codalab, Spain) at 37 °C for 24 h. while the fungal pathogens were activated using Potato Dextrose broth (Codalab, Spain) at 28 °C for 48 h.” left out

Staphylococcus aureus [6] = assay: Agar well diffusion; assay type: cell-based
From the text: as §2, with “For bacterial ones, preinoculum was prepared using Nuitrent broth medium (Codalab, Spain) at 37 °C for 24 h. while the fungal pathogens were activated using Potato Dextrose broth (Codalab, Spain) at 28 °C for 48 h.” left out

[7] = test system: HCT-116 (human colon cancer); assay: MTT cytotoxicity assay; assay type: cell-based; conditions: 48 h; for IC50: HCT-116, MTT
Method: (§3) The MTT 3-(4,5-dimethylthiazol-2-yl)-2,5-diphenyl-tetrazolium bromide (Bio Basic Canada Inc. Toronto, Canada) assay was used to assess cell viability. The procedures were carried out in a biosafety class II sterile laminar air flow cabinet (Baker, SG403INT; Sanford, ME, USA). […] Cells were seeded at a density of (10^4 cells/well) into 96-well micro titer polypropylene plates and left to adhere for 24 h. The media was aspirated and the test chemicals were given to the cells in a single dose of 100 µM in DMSO. After 48 h of incubation, 40 µL of MTT salt ([…]) was applied to each well. […] Instead of the tested substances, the medium was applied to the untreated cells (negative control). […] The testing substance was dissolved in dimethylsulfoxide (DMSO), and its final concentration in the cells was less than 0.2%. The solvent concentration was the same for all medications and between the control and drug treatments at the same dilution.

MTT cytotoxicity assay = assay type: cell-based, human; conditions: human, BJ-1 normal skin fibroblast cells, BJ-1 normal cells
Method: as §3

Candida albicans [8] = assay: Agar well diffusion; assay type: cell-based; conditions: 20 µg/mL, read-out: Inhibition Zone
From the text: as §2

Pseudomonas aeruginosa [9] = assay: Agar well diffusion; assay type: cell-based; conditions: 20 µg/mL, read-out: Inhibition Zone
From the text: as §2, with “For bacterial ones, preinoculum was prepared using Nuitrent broth medium (Codalab, Spain) at 37 °C for 24 h. while the fungal pathogens were activated using Potato Dextrose broth (Codalab, Spain) at 28 °C for 48 h.” left out

[10] = test system: MCF-7 (human breast cancer); assay: MTT cytotoxicity assay; assay type: cell-based; conditions: Homo sapiens, MCF-7, 48 h; for IC50: MCF7, 48 h, MTT
Method: as §3, with “The media was aspirated and the test chemicals were given to the cells in a single dose of 100 µM in DMSO.” left out

Bacillus subtilis [11] = assay: MIC by microdilution (CLSI); assay type: cell-based; conditions: read-out: Minimum inhibitory concentration (MIC)
Method: (§4) In brief, a defined weight for each selected compound was dissolved in dimethylsulphoxide (DMSO) and used as a stock solution[29].

Klebsiella pneumonia [12] = assay: MIC by microdilution (CLSI); assay type: cell-based; conditions: Klebsiella pneumoniae, read-out: Minimum inhibitory concentration (MIC)
Method: as §4

Pseudomonas aeruginosa [13] = assay: MIC by microdilution (CLSI); assay type: cell-based; conditions: read-out: Minimum inhibitory concentration (MIC)
Method: as §4

Staphylococcus aureus [14] = assay: MIC by microdilution (CLSI); assay type: cell-based; conditions: read-out: Minimum inhibitory concentration (MIC)
Method: as §4

SMILES	MIC (Aspergillus fumagitus [1]) [µg/mL]	MIC (Candida albicans [2]) [µg/mL]	zone of inhibition at 20 µg/mL (Aspergillus fumagitus [3]) [mm]	zone of inhibition at 20 µg/mL (Bacillus subtilis [4]) [mm]	zone of inhibition at 20 µg/mL (Klebsiella pneumonia [5]) [mm]	zone of inhibition at 20 µg/mL (Staphylococcus aureus [6]) [mm]	melting point [°C]	zone of inhibition at 20 µg/mL (Candida albicans [8]) [mm]	zone of inhibition at 20 µg/mL (Pseudomonas aeruginosa [9]) [mm]	further results
OC(Cn1cncn1)(Cn1cncn1)c1ccc(F)cc1F [Fluconazole, reference compound]	> 400	> 400								
Cc1ccc(S(=O)(=O)NC(=O)N2CCOCC2)cc1 [Compound 10, N-tosylmorpholine-4-carboxamide]			2	2	2	4	210 to 211			IC50 [7]: 72.6 ± 0.13 µM; cytotoxicity at 100 µM ([7]; HCT-116, single dose 100 µM, read-out: Cytotoxicity (%)): ≥ 65%; cytotoxicity at 48 h, 100 µM (MTT cytotoxicity assay): 19.7%
Cc1ccc(NC(=O)N2CCCC2)cc1 [Compound 14, N-(p-tolyl)pyrrolidine-1-carboxamide]			3	4	2	3	180 to 182	8		
O=C(Nc1ccccc1)N1CCOCC1 [Compound 20, N-phenylmorpholine-4-carboxamide]			2	2	4			3	3	
C[C@@H]1[C@H](O)[C@@H](C)/C=C/C=C/C=C/C=C/C=C/C=C/C=C/[C@H](O[C@@H]2O[C@H](C)[C@@H](O)[C@H](N)[C@@H]2O)C[C@@H]2O[C@](O)(C[C@@H](O)C[C@@H](O)[C@H](O)CC[C@@H](O)C[C@@H](O)CC(=O)O[C@H]1C)C[C@H](O)[C@H]2C(=O)O [Amphotericin B, reference compound]	20 (≈ 21.6 µM)	40 (≈ 43.3 µM)	5					4		
COc1cccc2c1C(=O)c1c(O)c3c(c(O)c1C2=O)C[C@@](O)(C(=O)CO)C[C@@H]3O[C@H]1C[C@H](N)[C@H](O)[C@H](C)O1 [Doxorubicin, doxorubicin, reference compound]										IC50 [7]: 65.1 ± 0.141 µM; IC50 [10]: 45 ± 0.123 µM
CC1=C(C(=O)O)N2C(=O)[C@@H](NC(=O)[C@H](N)C3=CCC=CC3)[C@H]2SC1 [Cephradine, reference compound]										MIC (Bacillus subtilis [11]): 320 µg/mL (≈ 916 µM); MIC (Klebsiella pneumonia [12]): > 400 µg/mL; MIC (Pseudomonas aeruginosa [13]): > 400 µg/mL; MIC (Staphylococcus aureus [14]): > 400 µg/mL
Cc1ccc(NC(=O)N2CCCCC2)cc1 [Compound 17, N-(p-tolyl)piperidine-1-carboxamide]	20 (≈ 91.6 µM)	20 (≈ 91.6 µM)	3	5	3	2	230 to 232	2	3	MIC (Bacillus subtilis [11]): 10 µg/mL (≈ 45.8 µM); MIC (Klebsiella pneumonia [12]): 80 µg/mL (≈ 366 µM); MIC (Pseudomonas aeruginosa [13]): 40 µg/mL (≈ 183 µM); MIC (Staphylococcus aureus [14]): 80 µg/mL (≈ 366 µM)
O=C(Nc1ccccc1)N1CCCC1 [Compound 19, N-phenylpyrrolidine-1-carboxamide]	40 (≈ 210 µM)	10 (≈ 52.6 µM)	3	2	4	2	233 to 235	4	2	MIC (Bacillus subtilis [11]): 80 µg/mL (≈ 421 µM); MIC (Pseudomonas aeruginosa [13]): 80 µg/mL (≈ 421 µM); MIC (Staphylococcus aureus [14]): 160 µg/mL (≈ 841 µM)
O=C(Nc1ccccc1)NC12CC3CC(CC(C3)C1)C2 [Compound 23, 1-(Adamantan-1-yl)-3-phenylurea]				3	2	2		3		IC50 [10]: 68.6 ± 0.116 µM; cytotoxicity at 100 µM ([10]; MCF7, single dose 100 µM, read-out: Cytotoxicity (%)): ≥ 51%
Cc1ccc(S(=O)(=O)NC(=O)N2CCCCC2)cc1 [Compound 12, N-tosylpiperidine-1-carboxamide]					3	3	232 to 235	2		
Cc1ccc(NC(=O)N2CCN(C)CC2)cc1 [Compound 16, 4-Methyl-N-(p-tolyl)piperazine-1-carboxamide]	80 (≈ 343 µM)	10 (≈ 42.9 µM)	3	2	5	2	252 to 253	5	3	MIC (Bacillus subtilis [11]): 160 µg/mL (≈ 686 µM); MIC (Pseudomonas aeruginosa [13]): 160 µg/mL (≈ 686 µM); MIC (Staphylococcus aureus [14]): 320 µg/mL (≈ 1370 µM)
Cc1ccc(S(=O)(=O)NC(=O)N2CCN(C)CC2)cc1 [Compound 11, 4-Methyl-N-tosylpiperazine-1-carboxamide]					2	2	190 to 192			
Cc1ccc(NC(=O)NC23CC4CC(CC(C4)C2)C3)cc1 [Compound 18, 1-(Adamantan-1-yl)-3-(p-tolyl)urea]			3	2			180 to 182	2		
Cc1ccc(S(=O)(=O)NC(=O)N2CCCC2)cc1 [Compound 9, N-tosylpyrrolidine-1-carboxamide]			2	6	2	4	228 to 230		2	
